Results from US20190136188A1, “4HPR AND ITS USE IN THE CULTURING OF HEMATOPOIETIC STEM CELLS” (UNIVERSITY HEALTH NETWORK, priority 2016, published 2019).

How the values were obtained:
[1] = test system: CD34+CD38- (stem) and CD34+CD38+ (prog) cells; experiment: cyto-ID flow cytometry (autophagic flux); assay type: cell-based, human; settings: day 2
Protocol: (A) Representative mmunofluorescence images taken by confocal microscopy for DAPI (blue) and LC3II staining (green) for CD34+CD38− cells (stem) following 2 days of treatment with DMSO control or 2 uM 4HPR with and without the autophagy inhibitor baflomycin A1 (BAF) to assay for basal autophagy and autophagic flux. (B) Quantitation of LC3II foci area as a percentage of total cell area for stem and prog (CD34+38+) cells from three independent CB using R and Image J software. (C) LCII foci area is increased with 4HPR treatment relative to control in the presence of BAF only in stem populations and not Prog populations. (D) Representative flow cytometry histogram plot of cyto-ID fluorescence intensity of control (black) and 4HPR (green) treated stem cells to assay for autophagic flux. Lower mean fluorescence intensity (MFI) indicates more turnover of autophagosomes and thus increased autophagic flux. […] (F) Cytokine withdrawal for 3 hours activates autophagic flux in CB stem cells to similar levels as 2 uM 4HPR as assayed by cyto-ID flow cytometry at day 2 post-treatment (n=3).
(B). […] This difference in mitochondrial content is lost by day 3 post culture (See FIG. 3K).
We hypothesize that such selective enhancement of CFC cloning efficiency with 4HPR treatment is a result of activating autophagy in HSC in human CB. […]

[2] = test system: ex vivo expanded human CB cells in NSG mice; experiment: Primary xenotransplantation of ex vivo expanded CB cells, 16 weeks
From the text: (A) Experimental scheme (B) Representative FACS analysis data of in vitro culture for 16 HSC dose time course (n=3). The number of (C) viable cells, (D) CD15+ myeloid cells, (E) GlyA+ erythroid cells, and (F) CD34+ primitive cells measured for the 16 LTRC dose with HTS flow cytometry analysis at day 8 post-treatment for vehicle control or 4HPR prior to xenotransplantation (n=5 biological replicates, 4 in technical triplicate, marked with different symbols). (G) Human CD45+ engraftment at 16 weeks post transplant in injected femur (n=4, 5 mice/biological experiment). Lineage analysis of control or 4HPR transplanted mice from FIG. 5G for (H) B lymphoid, (I) myeloid, (J) erythroid, and (K) primitive CD34+ at the 16 LTRC dose. (L) CD45+ cells were isolated from 5 biological experiments of the 16 LTRC dose primary mice and transplanted at limiting doses into secondary recipients for 16 weeks. Human CD45+ marking of >0.1% was considered positive for secondary engraftment. Limiting dilutation analysis was performed using ELDA software and the long-term repopulating cell (LTRC) frequency for each biological replicate plotted and the average LTRC frequency calculated.
All bones for each mouse were pooled following chimerism analysis and frozen for subsequent CD34 hierarchy analysis. Flow cytometry analysis were performed on CD34+ enriched cells using Miltenyl human CD34 enrichment protocol on thawed samples for the human CB hierarchy at the 16 HSC dose from 4 biological experiments, marked with different symbols (n=4 mice per biological experiment). The number of (B) CD34+CD19− cells, (C) CD34+CD38-, (D) CD34+CD38+, (E) HSC, (F) MPP, (G) MLP, and (I) GMP were quantitated from each mouse at 16 weeks post-transplant. Representative HSC hierarchy analysis scheme of CD34 enriched cells isolated from mice 16 weeks post-transplantation engrafted with ex vivo cultured CB cells in the presence of (J) vehicle control (black) or (K) 4HPR (green).
(A) The number of cells following 8 days of ex vivo culture at the 16 LTRC dose grown as in FIG. 5A for the indicated drug treatments (n=2). […] (2 biological replicates) (E) CD45+ cells were isolated from 2 biological experiments of the 16 LTRC dose primary mice and transplanted at limiting doses into secondary recipients for 16 weeks. […] Limiting dilutation analysis was performed using ELDA software and the long-term repopulating cell (LTRC) frequency for each biological replicate plotted and the average LTRC frequency calculated.
To determine if 4HPR preserves functional HSC in CB liquid culture, we devised an experimental protocol to test the effect of 4HPR treatment in short-term ex vivo expansion culture on repopulation in serial NSG xenotransplantation to functionally read out LT-HSC (FIG. 5A). […]

sorted HSC, MPP or GMP = experiment: Cell cycle analysis with Ki67 and Hoescht by flow cytometry; assay type: cell-based, human; settings: 2 uM 4HPR, day 2 or day 3

With `CC1=C(/C=C/C(C)=C/C=C/C(C)=C/C(=O)Nc2ccc(O)cc2)C(C)(C)CCC1` [4HPR, N-(4hydroxyphenyl)retinamide] the “autophagic flux by cyto-ID” value ([1]; 0.2 uM or 2 uM 4HPR vs vehicle, stem vs prog) was “only significantly induced in stem but not prog cells”, the “autophagy activated by cytokine withdrawal (cytoID)” value ([1]; CB stem cells, 3 hour cytokine withdrawal) was “further enhanced in the presence of 4HPR” and the “lineage distribution for B lymphoid, myeloid and erythroid” value ([2]; 16 HSC dose, 16 weeks) was “comparable between ctrl and 4HPR transplanted cells”. The “primitive lineage negative CD34+ cells in transplanted mice” value ([2]; 16 LTRC dose, 16 weeks) was “equally prevalent”, the “human CD45 chimerism” value ([2]; 16 weeks post transplant, all cell doses) was “the same CD45 chimerism as vehicle control” and the “HSPC populations of the HSC hierarchy in individual mice” value ([2]; 16 weeks post-transplant, control vs 4HPR expanded cells) was “on average identical”. The “cell cycle transit (Ki67 and Hoescht)” value (sorted HSC, MPP or GMP) was “no significant difference between ctrl and 4HPR”.
